The results in this text go back to US20040229268A1, “Method and kit for identifying antibiotic-resistant microorganisms” (priority 2003, published 2004).

The series relates to mecA gene; rRNA (pan-bacterial probe). The experiment in a line: Hybridization Protection Assay (HPA), AE-labeled probes, thermally lysed specimens (Examples 1-2). Format: binding, S. aureus. The method, then:
The specimens were lysed by suspending approximately 5×10^8 cells in a lysis buffer (0.1% lithium lauryl sulfate, 1 mM EDTA, 20 mM lithium succinate, pH 5.5) and then incubating in a heat block set at 110° C. for 20 minutes. Thermal lysis of a variety of other specimens was effected under a range of temperature (heat block set at about 95° C. to 110° C.) and time (about 10 to 25 minutes) conditions. The lysed samples were tested for the presence of target sequences complementary to the probes using a Hybridization Protection Assay (HPA) as described by Arnold et al., in Clin. Chem. 35:1588(1989) and U.S. Pat. No. 6,004,745. 50 μl of the heat-treated suspension was incubated with an equal volume of AE-labeled probe in 2× hybridization buffer (1.2 M LiCl, 2% lithium lauryl sulfate, 20 mM EDTA, 20 mM EGTA, 100 mM lithium succinate, pH 5.5) at 60° C. for 30 minutes. The pH of succinate solutions may range from about 4.5 to about 5.5, although it is desirable to use a pH of 4.8 for succinate buffering. 300 μl of a selection reagent (0.6 M borate buffered solution, pH 8.5; note, pH may vary from 8.0 to 9.0) was added, the mixture was heated at 60° C. for 10 minutes to effect differential hydrolysis, and the samples were read in a GEN-PROBE® LEADER® luminometer using sequential 300 μl injections of 0.1% H2O2 and 1 N NaOH solutions (see Arnold et al, supra; GEN-PROBE® Detection Reagent Kit, Cat. No. 1791 may be used).
Procedures similar to those described in Example 1 were conducted using a large number of bacterial samples, except that parallel hybridization reactions employed a pan-bacterial probe which targeted rRNA (Probe Reagent 1, GEN-PROBE® MTC-NI Kit, catalog no. 4573). […] The pan-bacterial probe reagent served as a positive control for lysis of all of the specimens. In this procedure each sample was tested against a panel of the three probes contained in separate hybridization reactions. Aliquots of the samples tested using the pan-bacterial probe reagent were diluted 1:3000 prior to performing luminometry so that results fell within the linear range of the detector. The signals indicated lysis and detection of ribosomal nucleic acids in each of the samples. These values depended on the number of bacterial cells in the specimen, as well as on the extent of cell lysis and the release or accessibility of ribosomal nucleic acids from the cells to be detected by the pan-bacterial probe.

For “CGCTATGATCCCAATCTAACTTCCACATACC (AE label, linker between 21 and 22, chemistry not fully specified; listed as Staphylococcus aureus) [Probe 2]”, the “AE-probe Average RLU” value by setting is: (No Specimen) 3062 RLU; (S. aureus specimen #99, mecA PCR Pos) 8072 RLU; (S. aureus specimen #100, mecA PCR Neg) 5585 RLU. Further, the “AE-Probe Signal (RLU)” value runs as follows: (Table 2, Negative Control) 1931 RLU; (Table 2, specimen 10, mecA PCR Neg, pan-bacterial diluted 1:3000 prior to luminometry) 3274 RLU; (Table 2, specimen 99, mecA PCR Pos, pan-bacterial diluted 1:3000 prior to luminometry) 13021 RLU; (Table 2, specimen 100, mecA PCR Neg, pan-bacterial diluted 1:3000 prior to luminometry) 6186 RLU; (Table 2, specimen 101, mecA PCR Neg, pan-bacterial diluted 1:3000 prior to luminometry) 6266 RLU; (Table 2, specimen 102, mecA PCR Pos, pan-bacterial diluted 1:3000 prior to luminometry) 13065 RLU. Besides, the “AE-Probe Signal (RLU)” value is reported as 2366 RLU (Table 2, specimen 103, mecA PCR Neg, pan-bacterial diluted 1:3000 prior to luminometry); 2000 RLU (Table 2, specimen 104, mecA PCR Neg, pan-bacterial diluted 1:3000 prior to luminometry); 2714 RLU (Table 2, specimen 105, mecA PCR Neg, pan-bacterial diluted 1:3000 prior to luminometry); 2989 RLU (Table 2, specimen 106, mecA PCR Neg, pan-bacterial diluted 1:3000 prior to luminometry); 9563 RLU (Table 2, specimen 139, mecA PCR Pos, pan-bacterial diluted 1:3000 prior to luminometry); 4967 RLU (Table 2, specimen 140, mecA PCR Pos, pan-bacterial diluted 1:3000 prior to luminometry). For the same sequence, the “AE-Probe Signal (RLU)” value (Table 2, specimen 142, mecA PCR Pos, pan-bacterial diluted 1:3000 prior to luminometry) is reported as 10345 RLU; the “AE-Probe Signal (RLU)” value (Table 2, specimen 145, mecA PCR Neg, pan-bacterial diluted 1:3000 prior to luminometry) is 2788 RLU; the “AE-Probe Signal (RLU)” value (Table 2, specimen 148, mecA PCR Pos, pan-bacterial diluted 1:3000 prior to luminometry) came to 15878 RLU; the “AE-Probe Signal (RLU)” value (Table 2, specimen 155, mecA PCR Neg, pan-bacterial diluted 1:3000 prior to luminometry) turned out to be 2257 RLU; the “AE-Probe Signal (RLU)” value (Table 2, specimen 164, mecA PCR Neg, pan-bacterial diluted 1:3000 prior to luminometry) is 3287 RLU; the “AE-Probe Signal (RLU)” value (Table 2, specimen 178, mecA PCR Pos, pan-bacterial diluted 1:3000 prior to luminometry) stood at 12652 RLU. Also, the “AE-Probe Signal (RLU)” value is, setting by setting: (Table 2, specimen 188, mecA PCR Pos, pan-bacterial diluted 1:3000 prior to luminometry) 20757 RLU; (Table 2, specimen 270, mecA PCR Pos, pan-bacterial diluted 1:3000 prior to luminometry) 14965 RLU; (Table 2, specimen 296, mecA PCR Pos, Lab Pos control, pan-bacterial diluted 1:3000 prior to luminometry) 10585 RLU.
